Patent US20100297020A1, “PHOSPHORYLATED AND PHOSPHONATED PYRONE ANALOGS FOR THERAPEUTIC TREATMENT” (Limerick Biopharma, Inc., priority 2008, published 2010)

Key:
AdenosineA1 = molecular target: T1, AdenosineA1 (Homo sapiens, UniProt P30542); assay: AdenosineA1 GTPγS functional assay; assay type: biochemical; details: 10 μM; compound may be / can be tested
T1 sequence (P30542 1-326): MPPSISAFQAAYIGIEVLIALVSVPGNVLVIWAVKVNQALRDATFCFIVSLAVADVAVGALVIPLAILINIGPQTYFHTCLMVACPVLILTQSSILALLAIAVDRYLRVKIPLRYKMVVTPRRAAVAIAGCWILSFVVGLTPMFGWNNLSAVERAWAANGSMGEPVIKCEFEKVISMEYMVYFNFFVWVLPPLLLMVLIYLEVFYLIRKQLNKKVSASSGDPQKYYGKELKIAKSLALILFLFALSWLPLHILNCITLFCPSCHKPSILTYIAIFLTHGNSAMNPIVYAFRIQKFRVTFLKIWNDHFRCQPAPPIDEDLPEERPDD
Method: (§1) The compound is additionally tested in AdenosineA1, AdrenergicA2A, DopamineD25, Histamine H1-, and μ-Opiate GTPγS functional assays using a concentration of 10 μM.
(§2) The compound may be additionally tested in AdenosineA1, AdrenergicA2A, DopamineD25, Histamine H1-, and μ-Opiate GTPγS functional assays using a concentration of 10 μM.
(§3) The compound can be additionally tested in AdenosineA1, AdrenergicA2A, DopamineD25, Histamine H1-, and μ-Opiate GTPγS functional assays using a concentration of 10 μM.

AdrenergicA2A = molecular target: T2, AdrenergicA2A (Homo sapiens, UniProt P08913); assay: AdrenergicA2A GTPγS functional assay; assay type: biochemical; details: 10 μM; compound may be / can be tested
T2 sequence (P08913 1-465): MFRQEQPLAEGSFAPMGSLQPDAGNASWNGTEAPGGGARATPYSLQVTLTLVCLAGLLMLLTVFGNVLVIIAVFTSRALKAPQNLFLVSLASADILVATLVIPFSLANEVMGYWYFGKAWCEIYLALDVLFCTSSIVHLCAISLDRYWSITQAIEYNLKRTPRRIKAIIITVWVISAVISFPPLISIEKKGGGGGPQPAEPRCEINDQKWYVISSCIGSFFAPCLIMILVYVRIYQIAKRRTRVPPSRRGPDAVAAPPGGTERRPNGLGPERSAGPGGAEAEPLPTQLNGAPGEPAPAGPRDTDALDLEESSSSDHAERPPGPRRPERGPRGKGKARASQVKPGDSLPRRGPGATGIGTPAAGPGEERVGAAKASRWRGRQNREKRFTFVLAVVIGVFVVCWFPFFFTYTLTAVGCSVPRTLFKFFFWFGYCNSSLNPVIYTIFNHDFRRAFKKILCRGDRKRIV
Method: as §1, §2, §3

[1] = test system: rats treated with tacrolimus; assay: Blood glucose in rats co-administered with tacrolimus; assay type: in vivo; details: tacrolimus 0.5 mg/kg i.p. day 1-25; Compound 2 114 mg/kg i.p. day 11-25

SMILES: O=c1c(O)c(-c2ccc(O)c(OCP(=O)(O)O)c2)oc2cc(O)cc(O)c12 [Compound 2, Quercetin-3′-O-methylphosphonic acid]
- antagonist activity in the AdenosineA1 assay (AdenosineA1): 48%
- inhibition in the AdrenergicA2A assay (AdrenergicA2A): marked negative inhibition
- blood glucose level (tacrolimus induced hyperglycemia) [1]: attenuate tacrolimus induced hyperglycemia
